Assay results from patent publication US20150190523A1, “BIOAVAILABILITY OF ORAL METHYLNALTREXONE INCREASES WITH A PHOSPHATIDYLCHOLINE-BASED FORMULATION” (The University of Chicago, priority 2012, published 2015).

Legend:
[1] = white crystalline powder, typically bromide salt, commercially provided; cited from earlier work
[2] = Pharmacokinetics of MNTX in rat plasma after oral gavage (LC/MS/MS); details: male, Sprague-Dawley, in vivo, 250 mg/kg; for AUC(0-t) / Cmax / Tmax: rats, 250 mg/kg oral
Experimental: Animals, MNTX Administration, and Blood Collection.
The experimental protocol was approved by the Institutional Animal Care and Use Committee. Male Sprague-Dawley rats (190-200 g) were obtained from Luye Pharma (Yantai, China) (Wang et al., 2010). Rats were allowed to acclimatize in environmentally controlled quarters (24±2° C. and a 12:12 h light-dark cycle). The rats were fasted for 12 h prior to the experiments.
Ten rats received test compounds via oral gavage. […] Venous blood samples were drawn from the ocular venous plexus at 0, 10, 20, 30, 45, 60, 90, 120, 150, 180, 240, 300, 420 and 540 min. The samples were placed into heparinized tubes and centrifuged at 1500×g for 5 min. The plasma samples were immediately stored in a freezer (−20° C.) for the pending assay.
Plasma Sample Processing.
A […] plasma sample was transferred to a 1.5 mL microcentrifuge tube. Then 0.2 mL of acetonitrile and […] of ketamine hydrochloride (I.S.) were mixed with the plasma sample and vortexed for 5 min before being centrifuged at 1500×g for 5 min. The supernatant was transferred to another tube and dried under a gentle flow of nitrogen. The residue was dissolved in […] of mobile phase, and then centrifuge at 15,000×g for 10 min. Lastly, 5 μL of supernatant was injected into the LC/MS/MS system for analysis.
Determination of MNTX Concentration by LC/MS/MS.
The concentrations of MNTX in rat plasma samples were determined with LC/MS/MS. MNTX plasma levels and the internal standard determined by LC/MS/MS were tested at the time points listed above. The assay was performed using an HPLC system with an Agilent 1100 pump, an Agilent 1100 auto sampler, and a Hanbang C18 column (150 mm×2.1 mm, 5 μm) with a guard column (Wang et al., 2011). For the mobile phase, methanol/water (60/40, containing 0.1% of acetic acid) was pumped at a flow rate of 0.2 mL/min. The samples were stored at 4° C. in the auto sampler before 5 μL was injected into the column. The detector was an API 4000 triple quadruple mass (MS) spectrometer (Applied Biosystems, Foster City, Calif.), and Analyst™ software version 4.1 was used for MS control and spectral processing. Using electrospray ionization (ESI) in positive ion mode, the MS parameters were optimized as follows: heater temperature, 350° C.; ion source voltage, 4000V. Multiple reaction monitoring was used, and the selected single charged precursor-production ion pairs were m/z 356.08→226.95 for MNTX and m/z 237.93→125.05 for ketamine hydrochloride.
Data analysis. Pharmacokinetic data were analyzed by software (Kinetic 4.4; Thermo Electron Co., Waltham. Mass.). All data were expressed as the mean±standard error (S.E.). A one-way ANOVA determined whether the results had statistical significance. The level of statistical significance was set at P<0.05.

In the case of `C[N+]1(CC2CC2)CCC23c4c5ccc(O)c4OC2C(=O)CCC3(O)C1C5` (centres unmarked) [MNTX, methylnaltrexone bromide], the solubility in water [1] is given as “freely soluble in water”, the AUC [2] is given as 1060 ng·h/mL and the half-life [2] is given as 4.32 h. The AUC(0-t) ([2]; AUC0-540 min, 0 to 540 min, mean±S.E.) was 1410 ± 448 ng·h/mL, the AUC(0-t) ([2]; First peak AUC0-150 min, 0 to 150 min, n=5, mean) was 341 ± 94.5 ng·h/mL and the Cmax ([2]; First peak Cmax, first plasma peak, n=5, mean) was 276 ± 102 ng/mL. It also gave a Tmax ([2]; First peak Tmax, first plasma peak) of 2 h, a Cmax ([2]; Second peak Cmax, second plasma peak, n=5, mean) of 448 ± 126 ng/mL and a Tmax ([2]; Second peak Tmax, second plasma peak) of 3 h. The Cmax ([2]; peak plasma concentration (Cmax), overall profile, mean±S.E.) was 448 ± 126 ng/mL and the Tmax ([2]; time to peak plasma concentration (Tmax), overall profile) was 3 h.
